Source: patent US4112073A, “Medicinal composition comprising adrenal cortical hormone and thyroid stimulating hormone releasing hormone” (Takeda Chemical Industries, Ltd., priority 1975, dated 1978)
Entries after “also recorded” stand apart in the source; their conditions may differ.

Tests used:
[1] = Relative clinical effect of ACH (dexamethasone equivalent); details: for Equivalent (dexamethasone equivalent): dexamethasone taken as unity
Source text: The relative amounts of ACH and TSH-releasing hormones may be determined according to the particular dosage form, the disease to be treated and other factors. Generally speaking, the ratio is about 1 (dexamethasone equivalent): 0.05 to 5, advantageously 0.05 to 2, and especially 0.1 to 1. The preferred ratio in each dosage form is; in the case of injections, about 1 (dexamethasone equivalent): 0.05 to 1, advantageously 0.1 to 1; in the case of oral preparations, about 1 (dexamethasone equivalent): 1 to 5, advantageously 1 to 2; and in the case of topical preparations, infusions and implants, about 1 (dexamethasone equivalent): 0.5 to 5, advantageously 0.5 to 2. The `dexamethasone equivalent` is an index number representing the relative clinical effect of any ACH with the effect of dexamethasone being taken as unity.

[2] = relative clinical effect of ACH; cited from earlier work
[3] = test system: chronic moist dermatitis (in dogs); details: oral tablets; Akitaken, 25 kg
Procedure: Diagnosis: Chronic moist dermatitis
Therefore, on the next day one tablet containing 0.5 mg of dexamethasone and 1 mg of TRH tartrate was orally administered. […] As an adjunct to the medication, the dog was placed on a controlled regimen.

eczema (in dogs) = experiment: Treatment of eczema in dogs with ointment (Example 2); details: hydrophilic ointment 0.1%, externally applied

SMILES	clinical efficacy / potency compared with dexamethasone [1]	Equivalent (dexamethasone equivalent) [1]	Clinical effect [2]	therapeutic response [3]	therapeutic result (eczema (in dogs); 4 dogs with exudative eczema)	adverse response (eczema (in dogs); dogs with exudative eczema)
C[C@H]1C[C@H]2[C@@H]3CCC4=CC(=O)C=C[C@]4(C)[C@@]3(F)[C@@H](O)C[C@]2(C)[C@@]1(O)C(=O)CO [Betamethasone, 9α-fluoro-16α-methylprednisolone]	as potent as dexamethasone	1	30			
C[C@@H]1C[C@H]2[C@@H]3CCC4=CC(=O)C=C[C@]4(C)[C@@]3(F)[C@@H](O)C[C@]2(C)[C@@]1(O)C(=O)CO [Dexamethasone, 9α-fluoro-16α-methylprednisolone]		1	30.0	failed to elicit a response		
C[C@]12CCC(=O)C=C1CC[C@@H]1[C@@H]2[C@@H](O)C[C@@]2(C)[C@H]1CC[C@]2(O)C(=O)CO [Hydrocortisone]		30	1.0			
C[C@H]1C[C@@H]2[C@H]([C@@H](O)C[C@@]3(C)[C@H]2CC[C@]3(O)C(=O)CO)[C@@]2(C)C=CC(=O)C=C12 [Methylprednisolone, 6α-methylprednisolone]		6	5.0			
C[C@@H]1C[C@H]2[C@@H]3C[C@H](F)C4=CC(=O)C=C[C@]4(C)[C@H]3[C@@H](O)C[C@]2(C)[C@@]1(O)C(=O)CO [Paramethasone, 6α-fluoro-16α-methylprednisolone]		3	10.0			
C[C@]12C=CC(=O)C=C1CC[C@@H]1[C@@H]2[C@@H](O)C[C@@]2(C)[C@H]1CC[C@]2(O)C(=O)CO [Prednisolone, prednisolone]		7.5	4.0			
C[C@]12C=CC(=O)C=C1CC[C@H]1[C@@H]3C[C@@H](O)[C@](O)(C(=O)CO)[C@@]3(C)C[C@H](O)[C@@]12F [Triamcinolone, 9α-fluoro-16α-hydroxyprednisolone]	one-sixth	6	5.0			
C[C@@H]1C[C@H]2[C@@H]3CCC4=CC(=O)C=C[C@]4(C)[C@@]3(F)[C@@H](O)C[C@]2(C)[C@@]1(O)C(=O)COP(=O)(O)O [dexamethasone phosphate]					a passing mitigation of inflammation or itchiness; also recorded: substantially no successful therapeutic result was obtained	an increase in the amount of exudate
